Like-named read-outs stand apart in the source and are kept apart here. *1 amine or outer side, *2 acyl side, *3 side chain or, on linkers, in order; H or OH if unused. Where a SMILES comes first, the peptide text is derived from it. Bridges are numbered along the chain shown (N, C = ends). Where no end group is shown, it is not given here. [ ]: non-standard residue; d: D form. S6H = (2S)-2-aminooct-7-enoic acid, C=CCCCC[C@H](N[*:1])C(=O)[*:2]; Leu(5,5,5,5',5',5'-F6) = N[C@@H](CC(C(F)(F)F)C(F)(F)F)C(=O)O; R5Me = hydrocarbon side chain-substituted amino acid; dNle(6-ylidene) = O=C([C@@H](CCCC=[*:3])N[*:1])[*:2]; X2 = O=C([C@@H](CCCCC=[*:3])N[*:1])[*:2]; X3 = O=C([C@H](CCCCCC=[*:3])N[*:1])[*:2]; Ala(5-hexenyl) = C=CCCCCC[C@H](N)C(=O)O; dNle(6-vinyl) = C=CCCCC[C@@H](N)C(=O)O; Gla = N[C@@H](CC(C(=O)O)C(=O)O)C(=O)O
What was measured:
[1] = target: T1, ABCA1 cholesterol transporter protein (Mus musculus, UniProt P41233); assay: ABCA1-dependent cholesterol efflux from RAW mouse macrophage cells (in vitro RCT assay); format: cell-based; settings: for EC50: read-out: EC50 in the cholesterol efflux assay (RCT in vitro assay)
T1 construct: endogenous in cells
T1 sequence (P41233 whole entry): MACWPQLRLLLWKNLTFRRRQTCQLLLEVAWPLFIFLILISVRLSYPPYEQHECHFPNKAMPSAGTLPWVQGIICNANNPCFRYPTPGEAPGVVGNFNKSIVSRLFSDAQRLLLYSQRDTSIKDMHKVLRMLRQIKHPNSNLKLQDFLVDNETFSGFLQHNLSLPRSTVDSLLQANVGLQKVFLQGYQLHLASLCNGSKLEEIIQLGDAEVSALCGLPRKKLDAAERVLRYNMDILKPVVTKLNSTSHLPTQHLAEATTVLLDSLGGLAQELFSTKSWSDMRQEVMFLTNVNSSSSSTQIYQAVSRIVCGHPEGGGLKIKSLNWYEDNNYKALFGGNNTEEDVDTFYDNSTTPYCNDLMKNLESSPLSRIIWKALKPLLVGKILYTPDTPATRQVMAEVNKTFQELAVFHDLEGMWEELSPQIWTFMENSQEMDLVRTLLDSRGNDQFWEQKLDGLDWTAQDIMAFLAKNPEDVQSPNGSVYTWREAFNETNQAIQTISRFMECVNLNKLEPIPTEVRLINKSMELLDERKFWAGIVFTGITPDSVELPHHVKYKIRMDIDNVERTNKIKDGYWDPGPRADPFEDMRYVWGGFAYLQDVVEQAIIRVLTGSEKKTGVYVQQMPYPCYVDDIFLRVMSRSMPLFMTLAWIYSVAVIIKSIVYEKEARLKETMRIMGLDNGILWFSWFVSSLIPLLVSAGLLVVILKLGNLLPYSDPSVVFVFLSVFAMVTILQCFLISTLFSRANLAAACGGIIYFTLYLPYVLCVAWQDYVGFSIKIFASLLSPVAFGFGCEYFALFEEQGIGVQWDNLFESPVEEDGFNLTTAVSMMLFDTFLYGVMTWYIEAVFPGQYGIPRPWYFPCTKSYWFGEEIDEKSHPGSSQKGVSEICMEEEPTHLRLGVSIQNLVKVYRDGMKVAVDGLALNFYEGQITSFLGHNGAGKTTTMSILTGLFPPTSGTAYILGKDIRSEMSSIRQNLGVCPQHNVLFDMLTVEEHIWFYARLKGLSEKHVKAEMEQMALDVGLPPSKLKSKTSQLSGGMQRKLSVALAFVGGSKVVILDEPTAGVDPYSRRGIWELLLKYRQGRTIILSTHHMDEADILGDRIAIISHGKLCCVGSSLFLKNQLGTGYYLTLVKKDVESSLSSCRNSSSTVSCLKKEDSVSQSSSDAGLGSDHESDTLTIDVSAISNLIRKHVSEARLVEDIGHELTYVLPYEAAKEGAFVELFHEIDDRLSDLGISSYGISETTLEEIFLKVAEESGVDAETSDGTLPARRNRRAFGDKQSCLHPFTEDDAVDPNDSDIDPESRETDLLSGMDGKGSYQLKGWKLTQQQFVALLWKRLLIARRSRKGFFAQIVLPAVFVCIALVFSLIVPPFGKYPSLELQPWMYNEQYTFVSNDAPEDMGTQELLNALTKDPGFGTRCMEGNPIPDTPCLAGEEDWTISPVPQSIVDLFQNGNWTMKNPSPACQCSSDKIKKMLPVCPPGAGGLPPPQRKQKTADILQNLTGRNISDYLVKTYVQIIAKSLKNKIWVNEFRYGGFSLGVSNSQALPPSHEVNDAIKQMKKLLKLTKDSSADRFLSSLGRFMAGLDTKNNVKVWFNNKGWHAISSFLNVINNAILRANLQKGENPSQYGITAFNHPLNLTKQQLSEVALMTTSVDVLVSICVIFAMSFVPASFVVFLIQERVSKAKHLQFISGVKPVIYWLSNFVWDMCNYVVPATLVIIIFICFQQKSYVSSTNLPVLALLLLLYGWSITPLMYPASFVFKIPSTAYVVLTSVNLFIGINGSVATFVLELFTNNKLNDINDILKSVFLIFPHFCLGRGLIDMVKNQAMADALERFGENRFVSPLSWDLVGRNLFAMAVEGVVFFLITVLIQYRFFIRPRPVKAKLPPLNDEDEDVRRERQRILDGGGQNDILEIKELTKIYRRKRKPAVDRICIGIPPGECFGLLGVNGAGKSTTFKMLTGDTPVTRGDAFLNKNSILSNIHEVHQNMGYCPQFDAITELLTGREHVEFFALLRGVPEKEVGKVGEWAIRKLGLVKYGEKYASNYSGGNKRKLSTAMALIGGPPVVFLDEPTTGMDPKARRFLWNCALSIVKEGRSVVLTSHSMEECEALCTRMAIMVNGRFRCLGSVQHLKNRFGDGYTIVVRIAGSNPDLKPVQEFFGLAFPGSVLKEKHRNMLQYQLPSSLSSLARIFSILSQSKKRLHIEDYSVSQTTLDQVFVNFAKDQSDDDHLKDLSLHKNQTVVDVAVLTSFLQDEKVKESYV
From the text: Peptides of the present invention were designed based on amphipathic properties and their abilities to solubilize phospholipids and promote cholesterol efflux. The most direct functional measurement of efficacy for the ApoA-1 peptide mimetic is its capacity to improve the efflux of cholesterol from the cell. The RAW and J774 cell lines are reliable mouse macrophage cell lines frequently used in the art for this purpose. […] The RAW cell line is preferred and recited in the description below.
In the present assay, the RAW cells are plated at 1.5×10^5 cells/200 μl/well/48-well plate in DMEM complete medium (with 10% FBS from INVITROGEN and 1% penicillin-streptomycin-glutamine from GIBCO) and ^3H-cholesterol at 5 μCi/ml. After 24 hours incubation in a moist 37° C. atmosphere with 5% CO2, the spent medium is removed, the cells are washed once with serum-free DMEM (0.1% fatty acid free bovine serum albumin replaces the FBS), and fresh serum-free medium (200 μl) is added to each well. After overnight incubation in the serum-free medium to allow the cellular cholesterol pools to equilibrate, the spent medium is removed, and fresh serum-free medium is added with/without CPT-cAMP (150 μM final). Eight-point serial titrations of the peptide/s being tested are added at this time (duplicate titrations in plain medium without cAMP and duplicate titrations in medium containing cAMP).
After 24 hours incubation in the various conditions, the medium is harvested from each well and 50 μl aliquots are counted. The cells are then lysed by adding 500 μl of HEPES/Triton lysis buffer to each well. The lysis is facilitated by freezing and thawing once. After thawing, the lysates are mixed well and 50 μl aliquots are counted.
The percent efflux of each peptide in each medium condition (±cAMP) is calculated by dividing the total counts in the medium by the sum of the total counts in the medium and lysate. The percent efflux seen with plain medium is subtracted from the percent efflux seen with the cAMP-stimulated efflux to yield the reported ABCA1-stimulated values. EC50 values are determined using PRISM software (Table 2).

[2] = Lipid (liposome) solubilization, turbidimetric method; format: biochemical
Experimental: As noted above, the other important parameter was phospholipid solubilization. A turbidimetric method is used to determine the solubilization capacity of peptides of the present invention. First, a three-fold serial titration of the peptide is prepared in a polypropylene v-shaped 96-well plate. The eight-point titration is done in phosphate-buffered saline (PBS, pH 7.5) or DMSO from a starting concentration that allows for addition to an optically-clear bottomed assay plate in <100 μl aliquots to yield a starting concentration of 500 μM in 200 μl final well volume. PBS is then added to each well to bring the total volume to 100 μl. Any bubbles in the wells must be dispersed to avoid erroneous results. Next, from a turbid but homogeneous emulsion of dimyristoyl phosphatidylcholine at 0.5 mg/ml in PBS, 100 μl is added to each well in the assay plate, the plate is inserted into the NEPHELOSTAR (BMG LABTECH INSTRUMENTS), and readings are taken immediately and every 15 minutes over 2 hours.
A true 0-point value is calculated by averaging the readings of the wells with phospholipid but no peptide. For each peptide concentration, a percent decrease in turbidity is calculated by subtracting the 0-point value from the corresponding 30 and 120 minute readings and dividing by that 0-point value. Finally the EC50 values for both time points are determined using PRISM software (Table 2).

[3] = read-out: IC50 in the liposome solubilization assay

C=CCCCCC[C@H](NC(=O)[C@H](CCC(=O)O)NC(=O)[C@H](CC(=O)O)NC(=O)[C@H](CC(C)C)NC(=O)[C@@H](NC(=O)[C@@H]1CCCN1C(C)=O)C(C)C)C(=O)N[C@@H](CCCNC(=N)N)C(=O)N[C@@H](CCC(=O)O)C(=O)N[C@@H](CCCCN)C(=O)N[C@@H](CC(C)C)C(=O)N[C@@H](CC(N)=O)C(=O)N[C@@H](CCC(=O)O)C(=O)N[C@H](CCCCC=C)C(=O)N[C@@H](CC(C)C)C(=O)N[C@@H](CCC(=O)O)C(=O)N[C@@H](C)C(=O)N[C@@H](CC(C)C)C(=O)N[C@@H](CCCCN)C(=O)N[C@@H](CCC(N)=O)C(=O)N[C@@H](CCCCN)C(=O)N[C@@H](CC(C)C)C(=O)N[C@@H](CCCCN)C(N)=O [SEQ ID NO 10, PVLDES7HREKLNER6HLEALKQKLK] (Ac-PVLDE[Ala(5-hexenyl)]REKLNE[dNle(6-vinyl)]LEALKQKLK-NH2; C-terminus assumed)
EC50 [1]: 1.2 µM | IC50 [2, 3]: 44 µM

PVLDEFREKLNEELEALKQKLK [compound 1]
ABCA1-DEPENDENT CHOLESTEROL EFFLUX EC50 ([1]; RAW cells, cAMP-stimulated minus plain medium efflux): NOT ACTIVE | LIPID SOLUBILIZATION IC50 ([2]; Measured at 2 h): NOT ACTIVE

CC(=O)N1CCC[C@H]1C(=O)N[C@H](C(=O)N[C@@H](CC(C)C)C(=O)N[C@@H](CC(=O)O)C(=O)N[C@@H](CCC(=O)O)C(=O)N[C@@H]1CCCCC=CCCCCC[C@@H](C(=O)N[C@@H](CC(C)C)C(=O)N[C@@H](CCC(=O)O)C(=O)N[C@@H](C)C(=O)N[C@@H](CC(C)C)C(=O)N[C@@H](CCCCN)C(=O)N[C@@H](CCC(N)=O)C(=O)N[C@@H](CCCCN)C(=O)N[C@@H](CC(C)C)C(=O)N[C@@H](CCCCN)C(N)=O)NC(=O)[C@H](CCC(=O)O)NC(=O)[C@H](CC(N)=O)NC(=O)[C@H](CC(C)C)NC(=O)[C@H](CCCCN)NC(=O)[C@H](CCC(=O)O)NC(=O)[C@H](CCCNC(=N)N)NC1=O)C(C)C [SEQ ID NO 14, PVLDER6HREKLNES7HLEALKQKLK (CYCLO R6H6-S7H13)] (Ac-PVLDE[X2]REKLNE[X3]LEALKQKLK-NH2; staple 6-13; C-terminus assumed)
EC50 [1]: 2 µM | IC50 [2, 3]: 43 µM

CC(=O)N1CCC[C@H]1C(=O)N[C@H](C(=O)N[C@@H](CC(C)C)C(=O)N[C@@H](CC(=O)O)C(=O)N[C@@H](CCC(=O)O)C(=O)N[C@@H](Cc1ccccc1)C(=O)N[C@@H](CCCNC(=N)N)C(=O)N[C@@H](CC(C(=O)O)C(=O)O)C(=O)N[C@@H](CCCCN)C(=O)N[C@@H](CC(C)C)C(=O)N[C@@H](CC(N)=O)C(=O)N[C@@H](CCC(=O)O)C(=O)N[C@@H](C)C(=O)N[C@@H](CC(C)C)C(=O)N[C@@H](CCC(=O)O)C(=O)N[C@@H](C)C(=O)N[C@@H](CC(C)C)C(=O)N[C@@H](CCCCN)C(=O)N[C@@H](CCC(N)=O)C(=O)N[C@@H](CCCCN)C(=O)N[C@@H](CC(C)C)C(=O)N[C@@H](CCCCN)C(N)=O)C(C)C [compound 3] (Ac-PVLDEFR[Gla]KLNEALEALKQKLK-NH2; C-terminus assumed)
LIPID SOLUBILIZATION IC50 ([2]; Measured at 2 h): NOT ACTIVE

C=CCCCC[C@@H](NC(=O)[C@H](CCC(=O)O)NC(=O)[C@H](CC(N)=O)NC(=O)[C@H](CC(C)C)NC(=O)[C@H](CCCCN)NC(=O)[C@H](CCC(=O)O)NC(=O)[C@H](CCCNC(=N)N)NC(=O)[C@H](Cc1ccccc1)NC(=O)[C@H](CCC(=O)O)NC(=O)[C@H](CC(=O)O)NC(=O)[C@H](CC(C)C)NC(=O)[C@@H](NC(=O)[C@@H]1CCCN1C(C)=O)C(C)C)C(=O)N[C@@H](CC(C)C)C(=O)N[C@@H](CCC(=O)O)C(=O)N[C@@H](C)C(=O)N[C@@H](CC(C)C)C(=O)N[C@@H](CCCCN)C(=O)N[C@@H](CCC(N)=O)C(=O)N[C@@H](CCCCN)C(=O)N[C@@H](CC(C)C)C(=O)N[C@@H](CCCCN)C(N)=O [SEQ ID NO 18, PVLDEFREKLNER6HLEALKQKLK] (Ac-PVLDEFREKLNE[dNle(6-vinyl)]LEALKQKLK-NH2; C-terminus assumed)
IC50 [2, 3]: 32 µM

C=CCCC[C@@H](NC(=O)[C@H](CCC(=O)O)NC(=O)[C@H](CC(N)=O)NC(=O)[C@H](CC(C)C)NC(=O)[C@@H](CCCC=C)NC(=O)[C@H](CCC(=O)O)NC(=O)[C@H](CCCNC(=N)N)NC(=O)[C@H](Cc1ccccc1)NC(=O)[C@H](CCC(=O)O)NC(=O)[C@H](CC(=O)O)NC(=O)[C@H](CC(C)C)NC(=O)[C@@H](NC(=O)[C@@H]1CCCN1C(C)=O)C(C)C)C(=O)N[C@@H](CC(C)C)C(=O)N[C@@H](CCC(=O)O)C(=O)N[C@@H](C)C(=O)N[C@@H](CC(C)C)C(=O)N[C@@H](CCCCN)C(=O)N[C@@H](CCC(N)=O)C(=O)N[C@@H](CCCCN)C(=O)N[C@@H](CC(C)C)C(=O)N[C@@H](CCCCN)C(N)=O [SEQ ID NO 9, PVLDEFRER5HLNER5HLEALKQKLK] (Ac-PVLDEFRE[dNle(6-ylidene)]LNE[dNle(6-ylidene)]LEALKQKLK-NH2; C-terminus assumed)
IC50 [2, 3]: 91 µM

C=CCCCCC[C@H](NC(=O)[C@H](CCC(=O)O)NC(=O)[C@H](CC(N)=O)NC(=O)[C@H](CC(C)C)NC(=O)[C@H](CCCCN)NC(=O)[C@H](CCC(=O)O)NC(=O)[C@H](CCCNC(=N)N)NC(=O)[C@@H](CCCCC=C)NC(=O)[C@H](CCC(=O)O)NC(=O)[C@H](CC(=O)O)NC(=O)[C@H](CC(C)C)NC(=O)[C@@H](NC(=O)[C@@H]1CCCN1C(C)=O)C(C)C)C(=O)N[C@@H](CC(C)C)C(=O)N[C@@H](CCC(=O)O)C(=O)N[C@@H](C)C(=O)N[C@@H](CC(C)C)C(=O)N[C@@H](CCCCN)C(=O)N[C@@H](CCC(N)=O)C(=O)N[C@@H](CCCCN)C(=O)N[C@@H](CC(C)C)C(=O)N[C@@H](CCCCN)C(N)=O [SEQ ID NO 13, PVLDER6HREKLNES7HLEALKQKLK] (Ac-PVLDE[dNle(6-vinyl)]REKLNE[Ala(5-hexenyl)]LEALKQKLK-NH2; C-terminus assumed)
IC50 [2, 3]: 25 µM

C=CCCCCC[C@H](NC(=O)[C@H](CCC(=O)O)NC(=O)[C@H](CC(N)=O)NC(=O)[C@H](CC(C)C)NC(=O)[C@H](CCCCN)NC(=O)[C@H](CCC(=O)O)NC(=O)[C@H](CCCNC(=N)N)NC(=O)[C@H](Cc1ccccc1)NC(=O)[C@H](CCC(=O)O)NC(=O)[C@H](CC(=O)O)NC(=O)[C@H](CC(C)C)NC(=O)[C@@H](NC(=O)[C@@H]1CCCN1C(C)=O)C(C)C)C(=O)N[C@@H](CC(C)C)C(=O)N[C@@H](CCC(=O)O)C(=O)N[C@@H](C)C(=O)N[C@@H](CC(C)C)C(=O)N[C@@H](CCCCN)C(=O)N[C@@H](CCC(N)=O)C(=O)N[C@@H](CCCCN)C(=O)N[C@@H](CC(C)C)C(=O)N[C@@H](CCCCN)C(N)=O [SEQ ID NO 29, PVLDEFREKLNES7HLEALKQKLK] (Ac-PVLDEFREKLNE[Ala(5-hexenyl)]LEALKQKLK-NH2)
EC50 [1]: 2 µM

PVLDEFREKLNEELEALKQS6HLK (Ac-PVLDEFREKLNEELEALKQ[S6H]LK; not fully specified (C-terminus); printed as PVLDEFREKLNEELEALKQS6HLK) [SEQ ID NO 25]
activity in the cholesterol efflux / in vitro RCT assay, in words [1]: only slightly active

CC(=O)N1CCC[C@H]1C(=O)N[C@H](C(=O)N[C@@H](CC(C)C)C(=O)N[C@@H](CC(=O)O)C(=O)N[C@@H](CCC(=O)O)C(=O)N[C@@H](Cc1ccccc1)C(=O)N[C@@H](CCCNC(=N)N)C(=O)N[C@@H](CCC(=O)O)C(=O)N[C@@H](CCCCN)C(=O)N[C@@H](CC(C)C)C(=O)N[C@@H](CC(N)=O)C(=O)N[C@@H](CCC(=O)O)C(=O)N[C@@H](CC(C(F)(F)F)C(F)(F)F)C(=O)N[C@@H](CC(C)C)C(=O)N[C@@H](CCC(=O)O)C(=O)N[C@@H](C)C(=O)N[C@@H](CC(C)C)C(=O)N[C@@H](CCCCN)C(=O)N[C@@H](CCC(N)=O)C(=O)N[C@@H](CCCCN)C(=O)N[C@@H](CC(C)C)C(=O)N[C@@H](CCCCN)C(N)=O)C(C)C [SEQ ID NO 41, PVLDEFREKLNE-HFLEU-LEALKQKLK] (Ac-PVLDEFREKLNE[Leu(5,5,5,5',5',5'-F6)]LEALKQKLK-NH2; C-terminus assumed)
EC50 [1]: 1.1 µM

16 (Ac-PVLDEFRE[R5Me]LNE[R5Me]LEALKQKLK; not fully specified (C-terminus)) [compound 16]
IC50 ([2]; Measured at 2 h, read-out: LIPID SOLUBILIZATION IC50): 24 µM

22 (Ac-PVLDEFREKLNEELEALKQXLK; not fully specified (residue 20, C-terminus); printed as PVLDEFREKLNEELEALKQR7HLK) [compound 22]
ABCA1-DEPENDENT CHOLESTEROL EFFLUX, % at one concentration ([1]; AT 100 µM / @ 100): 1.4% @ 100
